Tests used:
bone marrow (BM) blasts = assay: Clinical study of emavusertib (Compound 1) on bone marrow (BM) blasts in AML / hrMDS patients with vs without prior immune checkpoint inhibitor exposure (FIG. 1A, FIG. 1B); assay type: in vivo, human
Text: FIG. 1A is a graph showing the results of a clinical study for the efficacy of emavusertib (Compound 1) administration on reducing bone marrow (BM) blasts in patients with blood cancer. Blasts are immature white blood cells that are usually found in small numbers in healthy bone marrow. High levels of blasts circulating in the blood are associated with cancer. This clinical study measured the change in blast levels before and after receiving Compound 1 treatment. Here, the relative change in blast levels before and after Compound 1 is compared between patients who had previously received immune checkpoint inhibitors in prior treatment and patients who were naïve to immune checkpoint inhibitors. The comparison groups each contain at least 5 high risk myelodysplastic syndrome (hrMDS) patients and 1 acute myeloid leukemia (AML) patient.
FIG. 1B is a graph showing baseline and best post-treatment blast levels of the subjects in FIG. 1A. […] Each patient is shaded according to their diagnosis.
To support the development of effective treatment regimens with Compound 1, a study was conducted to monitor bone marrow (BM) samples obtained from AML and high risk MDS patients with different prior histories of treatment. […] The present disclosure relates to methods of treating cancer with Compound 1 and other IRAK4 inhibitors or degraders, wherein the subject has a history of treatment with an immune checkpoint inhibitor.
This is a Phase 1, open-label dose escalation and cohort expansion study of Compound 1 as a monotherapy in patients with AML or MDS and in combination with AZA in treatment-naïve, adult patients with AML or hrMDS or in combination with VEN in patients with relapsed/refractory AML or hrMDS, after first line therapy.

[1] = Study Compound 1-101 (safety, drug exposure, biologic activity and clinical efficacy at 200 mg BID); assay type: in vivo, human
Text: Three patients with AML or MDS will be enrolled at the designated dose. If none of the first 3 patients experience a dose-limiting toxicity during the first cycle, patients may be enrolled into the next higher dose level. If 1 patient out of the first 3 experiences a dose-limiting toxicity, the dose level may be expanded with an additional 3 patients.

Cc1cc(-c2nc(C(=O)Nc3cc4oc(N5CCOCC5)nc4nc3N3CC[C@@H](O)C3)co2)ccn1 [Compound 1, emavusertib]
rate of response, as evidenced by reduced BM blast counts in hematology (bone marrow (BM) blasts; AML and high risk MDS patients, history of treatment with an immune checkpoint inhibitor vs no prior exposure): higher rate of response
relative change in blast levels before and after Compound 1 (bone marrow (BM) blasts; patients with prior immune checkpoint inhibitors (magrolimab, ipilimumab, or nivolumab + ipilimumab) vs not previously exposed, each group at least 5 hrMDS and 1 AML patient, FIG. 1A): significant reduction in blasts
change in bone marrow blast counts from baseline to best post-baseline (bone marrow (BM) blasts; prior immune checkpoint inhibitor exposure compared to no prior exposure, FIG. 1B): higher decreases in bone marrow blast counts
baseline vs best post-baseline bone marrow blasts counts (bone marrow (BM) blasts; prior immune checkpoint inhibitor exposure vs without exposure, FIG. 1A): significant difference
biologic activity and clinical efficacy [1]: signs of biologic activity and clinical efficacy
safety of starting dose level [1]: safe
